Converted amounts (≈) assume the structure as drawn. Peptide text beside a SMILES is read from it.
How the values were obtained:
[1] = tested on: Schizosaccharomyces pombe 972h-; assay: microbe, parasite or virus in culture; settings: read-out: MIC Sp
[2] = tested on: Candida albicans SC5314; assay: microbe, parasite or virus in culture; settings: SC5314, 24 h, read-out: MIC Ca
[3] = tested on: Histoplasma capsulatum G217B; assay: microbe, parasite or virus in culture; settings: 96 h, read-out: MIC Hc
[4] = tested on: Aspergillus nidulans FGSC A4; assay: microbe, parasite or virus in culture; settings: FGSCA4, 24 h, read-out: MIC An
[5] = tested on: Saccharomyces cerevisiae S288C; assay: microbe, parasite or virus in culture; settings: 24 h, read-out: MIC Sc
[6] = tested on: Saccharomyces cerevisiae S288C; settings: 24 h
[7] = tested on: Aspergillus nidulans FGSC A4; settings: 24 h
[8] = tested on: Candida albicans SC5314; settings: SC5314, 24 h
[9] = tested on: Schizosaccharomyces pombe 972h-
[10] = tested on: Histoplasma capsulatum G217B; settings: 96 h
[11] = tested on: tested bacteria; type: cell-based
[12] = tested on: P. aeruginosa; assay: Antibacterial MIC, microbroth dilution; type: cell-based, Pseudomonas aeruginosa ATCC 27853; settings: P. aeruginosa ATCC 27853; CLSI microbroth dilution, cation-adjusted Mueller-Hinton broth, 37 °C, OD600 every 15 min for 20 h, biological triplicate
Protocol: (§1) The antibacterial activity of the natural peptides and analogs was determined using the standard microbroth dilution method for determining minimal inhibitory concentration (MIC). […] The analog EMP-ER-D2K2 is the only analog that has some, but low, activity against B. subtilis with an MIC of 200 μg/mL.
(§2) Escherichia coli ATCC 25922 was obtained from ATCC and Pseudomonas aeruginosa ATCC 27853 was obtained from Carolina Biologicals. Staphylococcus aureus Newman was the S. aureus strain and the B. subtilis strain was JH642 (trpC2, pheA1).
(§3) Bacteria were grown on LB-agar plates (Fisher, Waltham, MA, USA) overnight at 37 °C, then stored at 4 °C until use. Four colonies were inoculated from the plate into 5 mL cation-adjusted Mueller-Hinton medium (Sigma) and grown to approximately OD600 = 1–2 at 37 °C in a shaking incubator at 250 rpm in preparation for antimicrobial activity testing. MICs were determined in cation-adjusted Mueller-Hinton broth using the microbroth dilution method from the Clinical and Laboratory Standards Institute. Growth was monitored by determining the optical density at 600 nm using a BioTek Synergy HTX multi-mode 96-well plate reader set to incubate at 37 °C and record every 15 min for 20 h. Each assay was performed in biological triplicate.

[13] = tested on: human erythrocytes; assay: Hemolytic activity; type: cell-based; settings: 1% human erythrocytes in PBS, 37 °C, 1 h, hemoglobin at 416 nm, 100% = 1% TritonX-100, biological triplicate
Protocol: Type O+ fresh human blood was purchased from Tennessee Blood Services Corp. (Memphis, TN, USA) in 10% citrate phosphate dextrose 10X phosphate saline solution (PBS) and EDTA (K2). Upon receiving the blood, it was washed using three volumes of 1X PBS + 5 mM glucose. The suspension was centrifuged at 1000× g for 10 min at 4 °C and the supernatant removed. The process was repeated two more times. The sedimented cells were resuspended in the same volume of 1X PBS + 5 mM glucose and stored at 4 °C until use.
[…] The cell suspensions were incubated at 37 °C for 1 h. The unlysed erythrocytes were removed by centrifugation (16,000× g) and the released hemoglobin was determined spectrophotometrically at 416 nm using a NanoDrop spectrophotometer (Thermo Fisher Scientific, Waltham, MA, USA). The control for no release of hemoglobin was a sample of 1% erythrocytes incubated in PBS without peptide. The control for 100% release of hemoglobin was a sample of 1% erythrocyte incubated in PBS with 1% TritonX-100. Each assay was performed in biological triplicate.

[14] = tested on: human erythrocytes; settings: cited from earlier work
Protocol: For EMP-ER, Konno reports 100% hemolysis for a concentration of 0.5 μg/mL and about 50% for 0.18 μg/mL [33].

[15] = tested on: S. aureus; assay: Antibacterial MIC, microbroth dilution; type: cell-based; settings: Staphylococcus aureus Newman; CLSI microbroth dilution, cation-adjusted Mueller-Hinton broth, 37 °C, OD600 every 15 min for 20 h, biological triplicate
Protocol: as §1, §2, §3

[16] = tested on: E. coli; assay: Antibacterial MIC, microbroth dilution; type: cell-based, Escherichia coli ATCC 25922; settings: E. coli ATCC 25922; CLSI microbroth dilution, cation-adjusted Mueller-Hinton broth, 37 °C, OD600 every 15 min for 20 h, biological triplicate
Protocol: as §1, §2, §3

[17] = tested on: B. subtilis; assay: Antibacterial MIC, microbroth dilution; type: cell-based, Bacillus subtilis JH642; settings: B. subtilis JH642; CLSI microbroth dilution, cation-adjusted Mueller-Hinton broth, 37 °C, OD600 every 15 min for 20 h, biological triplicate
Protocol: as §1, §2, §3

C[C@@H]1[C@H](O)[C@@H](C)/C=C/C=C/C=C/C=C/C=C/C=C/C=C/[C@H](O[C@@H]2O[C@H](C)[C@@H](O)[C@H](N)[C@@H]2O)C[C@@H]2O[C@](O)(C[C@@H](O)C[C@@H](O)[C@H](O)CC[C@@H](O)C[C@@H](O)CC(=O)O[C@H]1C)C[C@H](O)[C@H]2C(=O)O [Amphotericin B]
MIC [1]: 0.25 µg/mL (≈ 0.271 µM)
MIC [2]: 0.5 µg/mL (≈ 0.541 µM)
MIC [3]: 0.5 µg/mL (≈ 0.541 µM)
MIC [4]: > 16 µg/mL
MIC [5]: 1 µg/mL (≈ 1.08 µM)

CC[C@H](C)[C@H](N)C(=O)N[C@@H](CC(N)=O)C(=O)N[C@@H](CCCCN)C(=O)N[C@@H](CC(C)C)C(=O)N[C@H](C(=O)N[C@H](C(=O)N[C@@H](CCCCN)C(=O)N[C@H](C(=O)NCC(=O)N[C@@H](CCCCN)C(=O)N[C@H](C(=O)N[C@H](C(=O)N[C@@H](CO)C(=O)N[C@@H](CC(C)C)C(N)=O)C(C)C)[C@@H](C)CC)C(C)C)[C@@H](C)CC)C(C)C [EMP-AF-KV] (H-INKLVIKVGKIVSL-NH2)
MIC Sc [6]: >256 µg/mL
MIC An [7]: >256 µg/mL
MIC Ca [8]: >256 µg/mL
MIC Sp [9]: >256 µg/mL
MIC Hc [10]: >256 µg/mL
antibacterial activity [11]: no antibacterial activity

CC[C@H](C)[C@H](N)C(=O)N[C@@H](CC(N)=O)C(=O)N[C@@H](CC(C)C)C(=O)N[C@@H](CC(C)C)C(=O)N[C@@H](CCCCN)C(=O)N[C@H](C(=O)N[C@@H](C)C(=O)N[C@@H](CCCCN)C(=O)NCC(=O)N[C@H](C(=O)N[C@H](C(=O)N[C@@H](CCCCN)C(=O)N[C@@H](CO)C(=O)N[C@@H](CC(C)C)C(N)=O)[C@@H](C)CC)[C@@H](C)CC)[C@@H](C)CC [EMP-AF-OR] (H-INLLKIAKGIIKSL-NH2)
MIC P. aeruginosa [12]: 200 µg/mL
MIC Sc [6]: >256 µg/mL
hemolysis [13]: 100%
hemolysis (release) ([14]; at concentrations of 0.5 μg/m): 75%
hemolysis potency relative to mastoparan [14]: one-third
MIC S. aureus [15]: 25 µg/mL
MIC An [7]: >256 µg/mL
MIC E. coli [16]: 25 µg/mL
MIC Ca [8]: >256 µg/mL
MIC Sp [9]: >256 µg/mL
MIC Hc [10]: 128 µg/mL (≈ 84 µM)
MIC B. subtilis [17]: 10 µg/mL

Reference: article PMC8532962 (Antibiotics, 2021)
